From patent publication US20260335282A1, “NOVEL 3-ARYLIDENE-2-INDOLINONE DERIVATIVES FOR THERAPEUTIC USE” (ISTANBUL UNIVERSITESI REKTORLUGU, priority 2022, published 2026)

Legend:
Format in all cases: cell-based, human
MCF-7 cells = assay: MTT cytotoxicity, breast cancer cells MCF-7; conditions: MTT
Source text: (§1) The cytotoxicity, general tyrosine kinase inhibitory effects and cell death (apoptosis/necrosis) assays of 1-benzyl-3-(1H-indol-3-ylmethylidene)-1,3-dihydro-2H-indol-2-one derivatives (Formula 5) of the present invention are studied by the following methods. […] HUVEC (human umbilical vein endothelial cell), MCF-10F (human breast epithelial cell) and Beas2b (human lung bronchial epithelial cell) cell lines have been used as healthy control cells in MTT experiments.
(§2) Beas2b (human lung bronchiole epithelial cell) and HEK293 (renal tubule epithelium) cells used as normal cell lines were cultured in RPMI medium, and HUVEC (human umbilical cord endothelial cells) and MCF-10F (human breast epithelial cell) cells are cultured in DMEM medium containing 100 µg/ml penicillin/streptomycin. The cells, which covered 70% of the culture flask, are washed with phosphate buffer and then removed from the surface of the flask by application of trypsin-ethylenediamine tetraacetic acid (Trypsin-EDTA; 0.25%) solution, passaged, counted and seeded on appropriate plates before each experiment. Cells are treated with a total of 45 2-indolinone compounds (5) at concentrations of 0.1, 1, 5 and 10 μM. Stock compounds are prepared in 1 ml dimethylsulfoxide (DMSO) and 4 different dilutions were prepared with medium and performed to the cells. Control group cells are treated with DMSO at a similar concentration to the experimental groups.
(§3) MTT (3-(4,5-dimethylthiazol-2-yl)-2,5-diphenyl-2H-tetrazolium bromide) colorimetric assay provides quantitation of viable cells with ongoing mitochondrial activity in culture medium. According to the standard procedure in cell culture conditions, cells are maintained in RPMI-1640 and DMEM culture media containing 10% FBS and 1% penicillin/streptomycin. The trypan blue test is used for cell counts.
(§4) The effects of 45 2-indolinone compounds (5) on cell viability in all cancer cell lines are investigated by MTT assay. Cells are seeded in a 96-well flat bottom plate with 5000 cells in each well and 2-indolinone compounds (5) at concentrations of 0.1, 1, 5 and 10 μM are performed to the cells the next day. After 48 and/or 72 hours following treatment with 2-indolinone compounds, 50 μl of the supernatant is slowly discarded (as it was acid medium) and MTT at a concentration of 5 mg/ml is added to each well in a volume of 10 μl. After incubation for 4 hours, the formazan crystals formed in the wells are dissolved by adding 100 μl DMSO and the optical density is read at 570 nm test wavelength and 630 nm reference wavelength. Cell viability is expressed as % cell viability by comparing the absorbance of control and test wells. IC50 value is calculated from the dose-response curves prepared for each compound. In addition, the possible DMSO effect is eliminated by preparing negative control wells compatible with the amount of DMSO contained in the compounds. To understand the reaction of the compounds with MTT, cell-free (MTT+compounds) negative controls are prepared at the concentrations used (Mosmann, 1983). […] The absorbance values obtained are compared to the control and statistically evaluated by unpaired t-test using “Graphpad Prism 5.04” software. “P<0.05” is accepted as significant. When evaluating cytotoxic effects, the present inventors aim for the inventive compounds to be effective in cancer cells and ineffective in healthy cells. The inventive compounds have also been compared with sunitinib, one of the reference chemotherapy drugs currently used in treatment.
(§5) Among the compounds of the present invention, those that killed cancer cells by at least 50% (p<0.05) are selected and tested whether a 10-fold concentration of the M concentration at the IC50 value is toxic to normal healthy cells.

MDA-MB-231 cells = assay: MTT cytotoxicity, breast cancer cells MDA-MB-231; conditions: read-out: IC50, MDA-MB-231 (breast); MTT, no * mark (incubation time not given)
Source text: as §1, §2, §3, §4, §5

A549 cells = assay: MTT cytotoxicity, lung cancer cells A549; conditions: no * mark (incubation time not specified)
Source text: as §1, §2, §3, §4, §5

CAKI-1 cells = assay: MTT cytotoxicity, kidney cancer cells CAKI-1
Source text: as §1, §2, §3, §4, §5

A498 cells = assay: MTT cytotoxicity, kidney cancer cells A498; conditions: MTT
Source text: as §1, §2, §3, §4, §5

MCF-10F/Beas2b cells = assay: MTT cytotoxicity, healthy cells MCF-10F/Beas2b; conditions: for IC50: MTT; for Selectivite Index, MCF-10F/Beas2b (Table 2): MCF-10F/Beas2b vs colon or pancreas cancer cells
Source text: as §1, §2, §3, §4, §5

HUVEC cells = assay: MTT cytotoxicity, healthy cells HUVEC; conditions: for IC50: MTT; for Selectivite Index, HUVEC (Table 2): HUVEC vs colon or pancreas cancer cells
Source text: as §1, §2, §3, §4, §5

HT-29 cells = assay: MTT cytotoxicity, colon cancer cells HT-29; conditions: MTT, no * mark (incubation time not specified)
Source text: as §1, §2, §3, §4

HCT-116 cells = assay: MTT cytotoxicity, colon cancer cells HCT-116; conditions: no * mark (incubation time not specified)
Source text: as §1, §2, §3, §4

MIAPaCa-2 cells = assay: MTT cytotoxicity, pancreas cancer cells MIAPaCa-2; conditions: MTT, no * mark (incubation time not specified)
Source text: as §1, §2, §3, §4

[1] = no * mark (incubation time not specified)
[2] = *: effective 72 hours after incubation

| SMILES | IC50 (MCF-7 cells; [1]) [µM] | IC50 (MDA-MB-231 cells) [µM] | IC50 (A549 cells) [µM] | IC50 (CAKI-1 cells; [2]) [µM] | IC50 (A498 cells; [1]) [µM] | IC50 (MCF-10F/Beas2b cells; [1]) [µM] | IC50 (HUVEC cells; [2]) [µM] | IC50 (HT-29 cells) [µM] | IC50 (HCT-116 cells) [µM] | IC50 (MIAPaCa-2 cells) [µM] | IC50 (CAKI-1 cells; [1]) [µM] | IC50 (HUVEC cells; [1]) [µM] | IC50 (A498 cells; [2]) [µM] | Selectivite Index, MCF-10F/Beas2b (Table 2) (MCF-10F/Beas2b cells; cancer line not given) | IC50 (MCF-10F/Beas2b cells; [2]) [µM] | Selectivite Index, HUVEC (Table 2) (HUVEC cells; cancer line not given) | Selectivite Index (SI), MCF-10F/Beas2b (Table 1) (MCF-10F/Beas2b cells; MCF-10F/Beas2b vs breast or kidney cancer cells, cancer line not given) | Selectivite Index (SI), HUVEC (Table 1) (HUVEC cells; HUVEC vs breast or kidney cancer cells, cancer line not given) | IC50 (MCF-7 cells; [2]) [µM] |
| --- | --- | --- | --- | --- | --- | --- | --- | --- | --- | --- | --- | --- | --- | --- | --- | --- | --- | --- | --- |
| O=C1/C(=C\c2c[nH]c3ccccc23)c2cccc(F)c2N1Cc1cccc(Cl)c1 [32C] | 3.86 | 4.53 | > 10 | 8.76 | 8.26 | 1.35 | 1 | 1.65 | 4.31 | 1.35 | – | – | – | – | – | – | – | – | – |
| Cc1cccc(CN2C(=O)C(=Cc3c[nH]c4ccccc34)c3cccc(F)c32)c1 [34C] | > 10 | > 10 | 4.7 | – | 3.64 | 4.1 | – | > 10 | 0.64 | > 10 | 7.61 | 1.69 | – | – | – | – | – | – | – |
| Cc1ccc(CN2C(=O)/C(=C\c3c[nH]c4ccccc34)c3cccc(F)c32)cc1 [35C] | > 10 | > 10 | 5.93 | – | – | 3.23 | – | 1.01 | 0.23 | 0.62 | 4.5 | 1.62 | 3.09 | – | – | – | – | – | – |
| O=C1/C(=C\c2c[nH]c3ccccc23)c2cc(Cl)cc(Cl)c2N1Cc1ccccc1 [36C] | > 10 | > 10 | 2.35 | 4.01 | – | – | – | > 10 | 2.51 | 0.46 | – | 2.24 | 1.46 | 7.83 | 3.6 | 4.87 | – | – | – |
| Cc1ccc2c(c1)/C(=C/c1c[nH]c3ccccc13)C(=O)N2Cc1ccc(F)cc1 [45C] | > 10 | > 10 | 2.22 | 4.91 | – | – | – | > 10 | 0.47 | > 10 | – | 2.62 | 0.78 | 6.14 | 2.89 | 5.57 | – | – | – |
| Cc1ccc2c(c1)/C(=C/c1c[nH]c3ccccc13)C(=O)N2Cc1ccc(Cl)cc1 [47C] | 5 | > 10 | 2.65 | – | – | – | – | > 10 | > 10 | > 10 | 4.66 | > 10 | 0.9 | – | 2.6 | – | 2.88 | > 11.11 | – |
| Cc1cccc(CN2C(=O)/C(=C\c3c[nH]c4ccccc34)c3cc(C)ccc32)c1 [48C] | – | > 10 | 3 | 3.46 | – | 3.35 | – | 1.46 | 0.6 | 2.02 | – | 1.07 | 0.73 | – | 3.35 | – | – | – | 3.96 |
| Cc1cccc(CN2C(=O)/C(=C\c3c[nH]c4ccccc34)c3ccccc32)c1 [50C] | – | 4.3 | 4.6 | – | – | 4.37 | – | 1.49 | 0.5 | 2.96 | 4.96 | 0.86 | 3.85 | 8.74 | – | 1.72 | – | – | 4.15 |
| Cc1ccc(CN2C(=O)/C(=C\c3c[nH]c4ccccc34)c3cc(Cl)ccc32)cc1 [Y22] | > 10 | > 10 | > 10 | – | > 10 | 1.1 | – | > 10 | 2.34 | 0.49 | > 10 | 2.34 | – | – | – | – | – | – | – |
| Cc1ccc(CN2C(=O)/C(=C\c3c[nH]c4ccccc34)c3cc(F)ccc32)cc1 [Y25] | – | 3.4 | 3.31 | 7 | 3.15 | 2.72 | – | > 10 | 1.46 | 1.14 | – | 0.13 | – | – | – | – | – | – | 4.83 |
